Data published in US20260250318A1, “COMPOSITIONS AND METHODS FOR CROSSING THE BLOOD BRAIN BARRIER” (VOYAGER THERAPEUTICS, INC., priority 2022, published 2026).

Key:
[1] = system: brains, heart, liver, muscle, and DRG of the NHPs; test: Maturation of TTM-001 and TTM-002 capsids, NGS enrichment in NHP tissues; assay type: in vivo; conditions: relative to AAV9 control
How it was run: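 Variants carry mutations within and flanking the loop IV peptide insert: positions 450–466 were triplet-randomized, while positions 449–466 received low-frequency point mutations. The combined pool went into two NHPs, and each peptide was scored by NGS enrichment ratio against AAV9.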

brain = test: Matured TTM-001 and TTM-002 variants, NGS enrichment in mouse brain; assay type: in vivo, mice; conditions: relative to AAV9 control
[2] = NGS fold-enrichment of RNA, NHP brain
[3] = NGS fold-enrichment, NHP liver DNA
[4] = NGS fold-enrichment, NHP liver RNA
[5] = NGS fold-enrichment, NHP muscle
[6] = NGS fold-enrichment, mouse brain
[7] = NGS fold-enrichment of matured AAV capsid variants, NHP brain, RNA
[8] = NGS fold-enrichment, DRG of NHPs
[9] = NGS fold-enrichment, RNA, brain of NHPs
[10] = NGS fold-enrichment, heart of NHPs
[11] = NGS fold-enrichment, liver DNA of NHPs
[12] = NGS fold-enrichment, liver RNA of NHPs
[13] = NGS fold-enrichment, muscle of NHPs
[14] = NGS fold-enrichment, brain of mice

For KTINGQDSPHKSGQHQQA, the “Fold Enrichment relative to AAV9, Brain (NHP)” value [1, 2] was 85.657 fold, the “Fold Enrichment relative to AAV9, DRG (NHP)” value ([1]; NGS fold-enrichment, NHP DRG) was 1.127 fold and the “Fold Enrichment relative to AAV9, Heart (NHP)” value ([1]; NGS fold-enrichment, NHP heart) was 0.579 fold. For the same sequence, the “Fold Enrichment relative to AAV9, Liver DNA (NHP)” value [1, 3] was 0.557 fold, the “Fold Enrichment relative to AAV9, Liver RNA (NHP)” value [1, 4] was 0.193 fold and the “Fold Enrichment relative to AAV9, Muscle (NHP)” value [1, 5] was 0.000 fold. The “Fold Enrichment relative to AAV9, Brain (Mouse)” value (brain; [6]) was 5.582 fold.
With KTINGQDSPHKSGQNQDT the “Fold Enrichment relative to AAV9, Brain (NHP)” value [1, 2] was 82.075 fold, the “Fold Enrichment relative to AAV9, DRG (NHP)” value ([1]; NGS fold-enrichment, NHP DRG) was 0.000 fold and the “Fold Enrichment relative to AAV9, Heart (NHP)” value ([1]; NGS fold-enrichment, NHP heart) was 0.067 fold. For the same sequence, the “Fold Enrichment relative to AAV9, Liver DNA (NHP)” value [1, 3] was 0.144 fold, the “Fold Enrichment relative to AAV9, Liver RNA (NHP)” value [1, 4] was 0.225 fold and the “Fold Enrichment relative to AAV9, Muscle (NHP)” value [1, 5] was 0.000 fold. The “Fold Enrichment relative to AAV9, Brain (Mouse)” value (brain; [6]) was 9.626 fold.
With KTINGRGSPHKRGQNQQT the “Fold Enrichment relative to AAV9, Brain (NHP)” value [1, 2] was 120.889 fold, the “Fold Enrichment relative to AAV9, DRG (NHP)” value ([1]; NGS fold-enrichment, NHP DRG) was 0.100 fold and the “Fold Enrichment relative to AAV9, Heart (NHP)” value ([1]; NGS fold-enrichment, NHP heart) was 0.814 fold. For the same sequence, the “Fold Enrichment relative to AAV9, Liver DNA (NHP)” value [1, 3] was 0.614 fold, the “Fold Enrichment relative to AAV9, Liver RNA (NHP)” value [1, 4] was 0.458 fold and the “Fold Enrichment relative to AAV9, Muscle (NHP)” value [1, 5] was 0.434 fold. For the same sequence, the “Fold Enrichment relative to AAV9, Brain (Mouse)” value (brain; [6]) was 13.988 fold.
KTINGSASPHSKAHSQQT was tested, and the “Fold Enrichment relative to AAV9, Brain (NHP)” value [1, 7] was 55.293 fold, the “Fold Enrichment relative to AAV9, DRG (NHP)” value ([1]; NHP DRG) was 0.000 fold and the “Fold Enrichment relative to AAV9, Heart (NHP)” value ([1]; NHP heart) was 0.000 fold. For the same sequence, the “Fold Enrichment relative to AAV9, Liver DNA (NHP)” value ([1]; NHP liver, DNA) was 0.166 fold, the “Fold Enrichment relative to AAV9, Liver RNA (NHP)” value ([1]; NHP liver, RNA) was 0.000 fold and the “Fold Enrichment relative to AAV9, Muscle (NHP)” value ([1]; NHP muscle) was 0.000 fold. For the same sequence, the “Fold Enrichment relative to AAV9, Brain (Mouse)” value (brain; mouse brain) was 66.252 fold.
For KTINGSGSPHAKAQNHQT, the “Fold Enrichment relative to AAV9, Brain (NHP)” value [1, 7] was 50.667 fold, the “Fold Enrichment relative to AAV9, DRG (NHP)” value ([1]; NHP DRG) was 0.211 fold and the “Fold Enrichment relative to AAV9, Heart (NHP)” value ([1]; NHP heart) was 0.140 fold. For the same sequence, the “Fold Enrichment relative to AAV9, Liver DNA (NHP)” value ([1]; NHP liver, DNA) was 0.090 fold, the “Fold Enrichment relative to AAV9, Liver RNA (NHP)” value ([1]; NHP liver, RNA) was 0.101 fold and the “Fold Enrichment relative to AAV9, Muscle (NHP)” value ([1]; NHP muscle) was 0.051 fold. The “Fold Enrichment relative to AAV9, Brain (Mouse)” value (brain; mouse brain) was 80.603 fold.
With KTINGSGSPHGWVQNQQT the “Fold Enrichment relative to AAV9, Brain (NHP)” value [1, 2] was 97.122 fold, the “Fold Enrichment relative to AAV9, DRG (NHP)” value [1, 8] was 0.000 fold and the “Fold Enrichment relative to AAV9, DRG (NHP)” value ([1]; NGS fold-enrichment, NHP DRG) was 0.000 fold. For the same sequence, the “Fold Enrichment relative to AAV9, Heart (NHP)” value ([1]; NGS fold-enrichment, NHP heart) was 0.000 fold, the “Fold Enrichment relative to AAV9, Liver DNA (NHP)” value [1, 3] was 1.975 fold and the “Fold Enrichment relative to AAV9, Liver RNA (NHP)” value [1, 4] was 1.240 fold. For the same sequence, the “Fold Enrichment relative to AAV9, Muscle (NHP)” value [1, 5] was 0.000 fold, the “Fold Enrichment relative to AAV9, Brain (NHP)” value [1, 9] was 97.122 fold and the “Fold Enrichment relative to AAV9, Heart (NHP)” value [1, 10] was 0.000 fold. The “Fold Enrichment relative to AAV9, Liver DNA (NHP)” value [1, 11] was 1.975 fold, the “Fold Enrichment relative to AAV9, Liver RNA (NHP)” value [1, 12] was 1.240 fold and the “Fold Enrichment relative to AAV9, Muscle (NHP)” value [1, 13] was 0.000 fold. The “Fold Enrichment relative to AAV9, Brain (Mouse)” value (brain; [14]) was 290.720 fold and the “Fold Enrichment relative to AAV9, Brain (Mouse)” value (brain; [6]) was 290.720 fold.
KTINGSGSPHSKAGDSQT was tested, and the “Fold Enrichment relative to AAV9, Brain (NHP)” value [1, 7] was 50.457 fold, the “Fold Enrichment relative to AAV9, DRG (NHP)” value ([1]; NHP DRG) was 0.614 fold and the “Fold Enrichment relative to AAV9, Heart (NHP)” value ([1]; NHP heart) was 0.236 fold. The “Fold Enrichment relative to AAV9, Liver DNA (NHP)” value ([1]; NHP liver, DNA) was 0.071 fold, the “Fold Enrichment relative to AAV9, Liver RNA (NHP)” value ([1]; NHP liver, RNA) was 1.062 fold and the “Fold Enrichment relative to AAV9, Muscle (NHP)” value ([1]; NHP muscle) was 0.008 fold. The “Fold Enrichment relative to AAV9, Brain (Mouse)” value (brain; mouse brain) was 74.355 fold.
For KTINGSGSPHSKAHNQQR, the “Fold Enrichment relative to AAV9, DRG (NHP)” value [1, 8] was 0.562 fold, the “Fold Enrichment relative to AAV9, Brain (NHP)” value [1, 9] was 74.272 fold and the “Fold Enrichment relative to AAV9, Heart (NHP)” value [1, 10] was 0.486 fold. The “Fold Enrichment relative to AAV9, Liver DNA (NHP)” value [1, 11] was 0.057 fold, the “Fold Enrichment relative to AAV9, Liver RNA (NHP)” value [1, 12] was 0.956 fold and the “Fold Enrichment relative to AAV9, Muscle (NHP)” value [1, 13] was 0.047 fold. The “Fold Enrichment relative to AAV9, Brain (Mouse)” value (brain; [14]) was 107.301 fold.
In the case of KTINGSGSPHSKAHVRQT, the “Fold Enrichment relative to AAV9, Brain (NHP)” value [1, 2] is reported as 119.798 fold, the “Fold Enrichment relative to AAV9, DRG (NHP)” value [1, 8] is reported as 0.000 fold and the “Fold Enrichment relative to AAV9, DRG (NHP)” value ([1]; NGS fold-enrichment, NHP DRG) is reported as 0.000 fold. The “Fold Enrichment relative to AAV9, Heart (NHP)” value ([1]; NGS fold-enrichment, NHP heart) was 0.000 fold, the “Fold Enrichment relative to AAV9, Liver DNA (NHP)” value [1, 3] was 1.039 fold and the “Fold Enrichment relative to AAV9, Liver RNA (NHP)” value [1, 4] was 0.694 fold. For the same sequence, the “Fold Enrichment relative to AAV9, Muscle (NHP)” value [1, 5] was 0.262 fold, the “Fold Enrichment relative to AAV9, Brain (NHP)” value [1, 9] was 119.798 fold and the “Fold Enrichment relative to AAV9, Heart (NHP)” value [1, 10] was 0.000 fold. For the same sequence, the “Fold Enrichment relative to AAV9, Liver DNA (NHP)” value [1, 11] was 1.039 fold, the “Fold Enrichment relative to AAV9, Liver RNA (NHP)” value [1, 12] was 0.694 fold and the “Fold Enrichment relative to AAV9, Muscle (NHP)” value [1, 13] was 0.262 fold. The “Fold Enrichment relative to AAV9, Brain (Mouse)” value (brain; [14]) was 165.590 fold and the “Fold Enrichment relative to AAV9, Brain (Mouse)” value (brain; [6]) was 165.590 fold.
For KTINGSGSPHSKAIGKQT, the “Fold Enrichment relative to AAV9, Brain (NHP)” value [1, 7] was 56.158 fold, the “Fold Enrichment relative to AAV9, DRG (NHP)” value ([1]; NHP DRG) was 0.000 fold and the “Fold Enrichment relative to AAV9, Heart (NHP)” value ([1]; NHP heart) was 0.000 fold. For the same sequence, the “Fold Enrichment relative to AAV9, Liver DNA (NHP)” value ([1]; NHP liver, DNA) was 0.088 fold, the “Fold Enrichment relative to AAV9, Liver RNA (NHP)” value ([1]; NHP liver, RNA) was 0.887 fold and the “Fold Enrichment relative to AAV9, Muscle (NHP)” value ([1]; NHP muscle) was 0.000 fold. For the same sequence, the “Fold Enrichment relative to AAV9, Brain (Mouse)” value (brain; mouse brain) was 110.132 fold.
